# From US9670261B2 (Sanofi, priority 2012, dated 2017)
# *1 amine or outer side, *2 acyl side, *3 side chain or, on linkers, in order; H or OH if unused. Where a SMILES comes first, the peptide text is derived from it. Side-chain parts run from the residue outwards. [ ]: non-standard residue; d: D form. The star is where a group is joined. γGlu = O=C(O)[C@H](CCC(=O)[*:2])N[*:1]; Stearoyl = CCCCCCCCCCCCCCCCCC(=O)*; Palmitoyl = CCCCCCCCCCCCCCCC(=O)*; Aib = CC(C)(N)C(=O)O
# Molecular target: T1, human GLP-1 receptor (Homo sapiens, UniProt P43220)
# T1 construct: expressed in transfected cells
# T1 sequence (P43220 24-463): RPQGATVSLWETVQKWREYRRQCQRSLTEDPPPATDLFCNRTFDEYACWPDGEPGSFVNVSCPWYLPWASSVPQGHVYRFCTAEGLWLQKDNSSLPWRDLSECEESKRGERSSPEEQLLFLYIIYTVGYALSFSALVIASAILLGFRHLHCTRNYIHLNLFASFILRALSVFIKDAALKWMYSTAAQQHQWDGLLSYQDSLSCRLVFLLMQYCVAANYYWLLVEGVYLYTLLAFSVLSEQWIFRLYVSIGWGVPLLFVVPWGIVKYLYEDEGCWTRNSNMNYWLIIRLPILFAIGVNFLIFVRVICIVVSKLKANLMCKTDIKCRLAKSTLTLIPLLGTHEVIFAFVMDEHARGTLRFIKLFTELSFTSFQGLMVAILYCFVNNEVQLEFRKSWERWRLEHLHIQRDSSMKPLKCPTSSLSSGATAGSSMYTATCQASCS
# Experiment: cAMP response (HTRF) of HEK-293 cells stably expressing human GLP-1 receptor
# Assay type: cell-based
# Settings: Table 7; cAMP formation; read-out: EC50 hGLP-1 R
# Protocol: cAMP content of cells was determined using a kit from Cisbio Corp. (cat. no. 62AM4PEC) based on HTRF (Homogenous Time Resolved Fluorescence). For preparation, cells were split into T175 culture flasks and grown overnight to near confluency in medium (DMEM/10% FBS). Medium was then removed and cells washed with PBS lacking calcium and magnesium, followed by proteinase treatment with accutase (Sigma-Aldrich cat. no. A6964). Detached cells were washed and resuspended in assay buffer (1×HBSS; 20 mM HEPES, 0.1% BSA, 2 mM IBMX) and cellular density determined. They were then diluted to 400000 cells/ml and 25 μl-aliquots dispensed into the wells of 96-well plates. For measurement, 25 μl of test compound in assay buffer was added to the wells, followed by incubation for 30 minutes at room temperature.
row,Structure (SMILES),EC50
1,"CCCCCCCCCCCCCCCCCC(=O)N[C@@H](CCC(=O)NCCCC[C@H](NC(=O)[C@H](CCC(N)=O)NC(=O)[C@@H](NC(=O)[C@H](CO)NC(=O)[C@H](CC(C)C)NC(=O)[C@H](CC(=O)O)NC(=O)[C@H](CO)NC(=O)[C@@H](NC(=O)[C@H](Cc1ccccc1)NC(=O)[C@@H](NC(=O)CNC(=O)[C@H](CCC(=O)O)NC(=O)C(C)(C)NC(=O)[C@@H](N)Cc1ccc(O)cc1)[C@@H](C)O)[C@@H](C)O)[C@@H](C)CC)C(=O)N[C@@H](CCC(=O)O)C(=O)N[C@@H](CCCCN)C(=O)N[C@@H](CCCNC(=N)N)C(=O)N[C@@H](C)C(=O)N[C@@H](C)C(=O)N[C@@H](CCC(N)=O)C(=O)N[C@@H](CCC(=O)O)C(=O)N[C@@H](Cc1ccccc1)C(=O)N[C@H](C(=O)N[C@@H](CCC(=O)O)C(=O)N[C@@H](Cc1c[nH]c2ccccc12)C(=O)N[C@@H](CC(C)C)C(=O)N[C@@H](CCCCN)C(=O)N[C@@H](CC(N)=O)C(=O)N[C@H](C(=O)NCC(=O)N1CCC[C@H]1C(=O)N[C@@H](CO)C(=O)N[C@@H](CO)C(=O)NCC(=O)N[C@@H](C)C(=O)N1CCC[C@H]1C(=O)N1CCC[C@H]1C(=O)N1CCC[C@H]1C(=O)N[C@@H](CO)C(N)=O)[C@@H](C)O)[C@@H](C)CC)C(=O)O [SEQ ID NO: 19, Y-Aib-E-G-T-F-T-S-D-L-S-I-Q-K(γE-x70)-EKRAAQEFIEWLKNTGPSSGAPPPS-NH2] (H-Y[Aib]EGTFTSDLSIQK([γGlu-Stearoyl])EKRAAQEFIEWLKNTGPSSGAPPPS-NH2)",4 pM
2,"CCCCCCCCCCCCCCCC(=O)N[C@@H](CCC(=O)NCCCC[C@H](NC(=O)[C@H](CCC(N)=O)NC(=O)[C@@H](NC(=O)[C@H](CO)NC(=O)[C@H](CC(C)C)NC(=O)[C@H](CC(=O)O)NC(=O)[C@H](CO)NC(=O)[C@@H](NC(=O)[C@H](Cc1ccccc1)NC(=O)[C@@H](NC(=O)CNC(=O)[C@H](CCC(=O)O)NC(=O)C(C)(C)NC(=O)[C@@H](N)Cc1ccc(O)cc1)[C@@H](C)O)[C@@H](C)O)[C@@H](C)CC)C(=O)N[C@@H](CCC(=O)O)C(=O)N[C@@H](CO)C(=O)N[C@@H](CCCNC(=N)N)C(=O)N[C@@H](C)C(=O)N[C@@H](C)C(=O)NC(C)(C)C(=O)N[C@@H](CC(=O)O)C(=O)N[C@@H](Cc1ccccc1)C(=O)N[C@H](C(=O)N[C@@H](CCC(=O)O)C(=O)N[C@@H](Cc1c[nH]c2ccccc12)C(=O)N[C@@H](CC(C)C)C(=O)N[C@@H](CCCCN)C(=O)N[C@@H](CC(N)=O)C(=O)N[C@H](C(=O)NCC(=O)N1CCC[C@H]1C(=O)N[C@@H](CO)C(=O)N[C@@H](CO)C(=O)NCC(=O)N[C@@H](C)C(=O)N1CCC[C@H]1C(=O)N1CCC[C@H]1C(=O)N1CCC[C@H]1C(=O)N[C@@H](CO)C(N)=O)[C@@H](C)O)[C@@H](C)CC)C(=O)O [SEQ ID NO: 24, Y-Aib-E-G-T-F-T-S-D-L-S-I-Q-K(γE-x53)-E-S-R-A-A-Aib-D-F-I-E-W-L-K-N-T-G-P-S-S-G-A-P-P-P-S-NH2] (H-Y[Aib]EGTFTSDLSIQK([γGlu-Palmitoyl])ESRAA[Aib]DFIEWLKNTGPSSGAPPPS-NH2)",13.5 pM
3,"CCCCCCCCCCCCCCCC(=O)N[C@@H](CCC(=O)NCCCC[C@H](NC(=O)[C@H](CCC(N)=O)NC(=O)[C@@H](NC(=O)[C@H](CO)NC(=O)[C@H](CC(C)C)NC(=O)[C@H](CC(=O)O)NC(=O)[C@H](CO)NC(=O)[C@@H](NC(=O)[C@H](Cc1ccccc1)NC(=O)[C@@H](NC(=O)CNC(=O)[C@H](CCC(N)=O)NC(=O)C(C)(C)NC(=O)[C@@H](N)Cc1ccc(O)cc1)[C@@H](C)O)[C@@H](C)O)[C@@H](C)CC)C(=O)N[C@@H](CC(=O)O)C(=O)N[C@@H](CCCCN)C(=O)N[C@@H](CCCNC(=N)N)C(=O)N[C@@H](C)C(=O)N[C@@H](C)C(=O)N[C@@H](CCC(N)=O)C(=O)N[C@@H](CC(=O)O)C(=O)N[C@@H](Cc1ccccc1)C(=O)N[C@H](C(=O)N[C@@H](CCC(=O)O)C(=O)N[C@@H](Cc1c[nH]c2ccccc12)C(=O)N[C@@H](CC(C)C)C(=O)N[C@@H](CCCCN)C(=O)N[C@@H](C)C(=O)NCC(=O)NCC(=O)N1CCC[C@H]1C(=O)N[C@@H](CO)C(=O)N[C@@H](CO)C(=O)NCC(=O)N[C@@H](C)C(=O)N1CCC[C@H]1C(=O)N1CCC[C@H]1C(=O)N1CCC[C@H]1C(=O)N[C@@H](CO)C(N)=O)[C@@H](C)CC)C(=O)O [SEQ ID NO: 28, Y-Aib-Q-G-T-F-T-S-D-L-S-I-Q-K(γE-x53)-DKRAAQDFIEWLKAGGPSSGAPPPS-NH2] (H-Y[Aib]QGTFTSDLSIQK([γGlu-Palmitoyl])DKRAAQDFIEWLKAGGPSSGAPPPS-NH2)",3.2 pM
4,"CCCCCCCCCCCCCCCC(=O)N[C@@H](CCC(=O)NCCCC[C@H](NC(=O)[C@H](CCC(N)=O)NC(=O)[C@@H](NC(=O)[C@H](CO)NC(=O)[C@H](CC(C)C)NC(=O)[C@H](CC(=O)O)NC(=O)[C@H](CO)NC(=O)[C@@H](NC(=O)[C@H](Cc1ccccc1)NC(=O)[C@@H](NC(=O)CNC(=O)[C@H](CCC(N)=O)NC(=O)C(C)(C)NC(=O)[C@@H](N)Cc1ccc(O)cc1)[C@@H](C)O)[C@@H](C)O)[C@@H](C)CC)C(=O)N[C@@H](CC(=O)O)C(=O)N[C@@H](CO)C(=O)N[C@@H](CCCNC(=N)N)C(=O)N[C@@H](C)C(=O)N[C@@H](C)C(=O)N[C@@H](CCC(N)=O)C(=O)N[C@@H](CCC(=O)O)C(=O)N[C@@H](Cc1ccccc1)C(=O)N[C@H](C(=O)N[C@@H](CCC(=O)O)C(=O)N[C@@H](Cc1c[nH]c2ccccc12)C(=O)N[C@@H](CC(C)C)C(=O)N[C@@H](CCCCN)C(=O)N[C@@H](C)C(=O)NCC(=O)NCC(=O)N1CCC[C@H]1C(=O)N[C@@H](CO)C(=O)N[C@@H](CO)C(=O)NCC(=O)N[C@@H](C)C(=O)N1CCC[C@H]1C(=O)N1CCC[C@H]1C(=O)N1CCC[C@H]1C(=O)N[C@@H](CO)C(N)=O)[C@@H](C)CC)C(=O)O [SEQ ID NO: 29, Y-Aib-Q-G-T-F-T-S-D-L-S-I-Q-K(γE-x53)-DSRAAQEFIEWLKAGGPSSGAPPPS-NH2] (H-Y[Aib]QGTFTSDLSIQK([γGlu-Palmitoyl])DSRAAQEFIEWLKAGGPSSGAPPPS-NH2)",7 pM
5,"CCCCCCCCCCCCCCCC(=O)N[C@@H](CCC(=O)NCCCC[C@H](NC(=O)[C@H](CCC(N)=O)NC(=O)[C@@H](NC(=O)[C@H](CO)NC(=O)[C@H](CC(C)C)NC(=O)[C@H](CC(=O)O)NC(=O)[C@H](CO)NC(=O)[C@@H](NC(=O)[C@H](Cc1ccccc1)NC(=O)[C@@H](NC(=O)CNC(=O)[C@H](CCC(=O)O)NC(=O)C(C)(C)NC(=O)[C@@H](N)Cc1ccc(O)cc1)[C@@H](C)O)[C@@H](C)O)[C@@H](C)CC)C(=O)N[C@@H](CCC(=O)O)C(=O)N[C@@H](CO)C(=O)N[C@@H](CCCNC(=N)N)C(=O)N[C@@H](C)C(=O)N[C@@H](C)C(=O)N[C@@H](CCC(N)=O)C(=O)N[C@@H](CCC(=O)O)C(=O)N[C@@H](Cc1ccccc1)C(=O)N[C@H](C(=O)N[C@@H](CCC(=O)O)C(=O)N[C@@H](Cc1c[nH]c2ccccc12)C(=O)N[C@@H](CC(C)C)C(=O)N[C@@H](CCCCN)C(=O)N[C@@H](C)C(=O)NCC(=O)NCC(=O)N1CCC[C@H]1C(=O)N[C@@H](CO)C(=O)N[C@@H](CO)C(=O)NCC(=O)N[C@@H](C)C(=O)N1CCC[C@H]1C(=O)N1CCC[C@H]1C(=O)N1CCC[C@H]1C(=O)N[C@@H](CO)C(N)=O)[C@@H](C)CC)C(=O)O [SEQ ID NO: 39, Y-Aib-E-G-T-F-T-S-D-L-S-I-Q-K(γE-x53)-ESRAAQEFIEWLKAGGPSSGAPPPS-NH2] (H-Y[Aib]EGTFTSDLSIQK([γGlu-Palmitoyl])ESRAAQEFIEWLKAGGPSSGAPPPS-NH2)",4.3 pM

# Same assay, conditions: Table 8; functionalized vs non-functionalized position 14; read-out: EC50 hGLP-1 R
row,Structure (SMILES),EC50
1,"CC[C@H](C)[C@H](NC(=O)[C@H](Cc1ccccc1)NC(=O)[C@H](CC(=O)O)NC(=O)[C@H](CCC(N)=O)NC(=O)[C@H](C)NC(=O)[C@H](C)NC(=O)[C@H](CCCNC(=N)N)NC(=O)[C@H](CO)NC(=O)[C@H](CCC(=O)O)NC(=O)[C@H](CC(C)C)NC(=O)[C@H](CCC(N)=O)NC(=O)[C@@H](NC(=O)[C@H](CO)NC(=O)[C@H](CC(C)C)NC(=O)[C@H](CC(=O)O)NC(=O)[C@H](CO)NC(=O)[C@@H](NC(=O)[C@H](Cc1ccccc1)NC(=O)[C@@H](NC(=O)CNC(=O)[C@H](CCC(N)=O)NC(=O)C(C)(C)NC(=O)[C@@H](N)Cc1ccc(O)cc1)[C@@H](C)O)[C@@H](C)O)[C@@H](C)CC)C(=O)N[C@@H](CCC(=O)O)C(=O)N[C@@H](Cc1c[nH]c2ccccc12)C(=O)N[C@@H](CC(C)C)C(=O)N[C@@H](CCCCN)C(=O)N[C@@H](C)C(=O)NCC(=O)NCC(=O)N1CCC[C@H]1C(=O)N[C@@H](CO)C(=O)N[C@@H](CO)C(=O)NCC(=O)N[C@@H](C)C(=O)N1CCC[C@H]1C(=O)N1CCC[C@H]1C(=O)N1CCC[C@H]1C(=O)N[C@@H](CO)C(N)=O [SEQ ID NO: 40, Y-Aib-QGTFTSDLSIQLESRAAQDFIEWLKAGGPSSGAPPPS-NH2, reference compound] (H-Y[Aib]QGTFTSDLSIQLESRAAQDFIEWLKAGGPSSGAPPPS-NH2; N-terminus assumed)",3.2 pM
